Laboratory results: patent publication US20230398087A1, “APPLICATION OF BZP IN TREATMENT OF ISCHEMIC CARDIOVASCULAR AND CEREBRAL VASCULAR DISEASES” (priority 2020, published 2023)

How the values were obtained:
[1] = Long-term toxicity test, 13 consecutive weeks, dogs; type: in vivo
Protocol: These gradually returned to normal within 1 hour. […] The nervous system and respiratory system reactions in the long-term toxicity test were transient reactions, and the slight anemia and damage to the liver also recovered within the observation period.

[2] = tested on: global cerebral ischemia-reperfusion model in rats; assay: Global cerebral ischemia-reperfusion injury in rats; type: in vivo
Protocol: (§1) BZP has a protective effect on cerebral ischemia-reperfusion injury and is effective when administered within 4 hours after ischemia, especially within 2 hours after ischemia.
2.5 The Protective Effect of BZP on Global Cerebral Ischemia-Reperfusion Injury in Rats:
BZP has a protective effect on acute global cerebral ischemia in rats, and its mechanism is to inhibit the inflammatory response and apoptosis of cells.

in vivo = details: for recovery of toxic reactions in the nervous system and respiratory system: acute toxicity test; for MTD: in vivo, single intravenous injection
Protocol: In the acute toxicity test, a single intravenous injection of BZP was given to rats and dogs, and the MTDs were 200 mg/kg and 300 mg/kg.

[3] = tested on: TNF-α, IL-6, IL-1β, NF-κB, COX-2, ICAM-1; assay: Inflammatory response induced by focal cerebral ischemia-reperfusion injury, immunohistochemical staining; type: in vivo, rats
Source text: 2.2 Effects of BZP on Inflammatory Response Induced by Focal Cerebral Ischemia-Reperfusion Injury in Rats:
The results of TNF-α, IL-6, IL-1β, NF-κB, Cox-2, ICAM-1 immunohistochemical staining
BZP can inhibit the cellular inflammatory response induced by cerebral ischemia-reperfusion injury, manifested as inhibiting the expression of TNF-α-IL-6-IL-1β-NF-κB-COX-2-ICAM-1 loop.

[4] = Pharmacokinetics after intravenous injection in dogs; type: in vivo
neurobehavior = assay: Safety pharmacology, neurobehavior; type: in vivo, rats
Protocol: These changes all recovered within 4 hours after drug withdrawal. The effective dose (12 mg/kg) of BZP to protect against ischemia-reperfusion injury in rats was lower than the dose (50 mg/kg) that caused neurological effects in rats.

respiratory system = assay: Safety pharmacology, respiratory system; type: in vivo, rats; details: single intravenous injection 25-100 mg/kg
Protocol: In terms of the respiratory system, a single intravenous injection of BZP 25-100 mg/kg had no effect on rats.

platelet aggregation = assay: Rat in vivo platelet aggregation
MCAO model rats = assay: Focal cerebral ischemia-reperfusion injury in rats (MCAO model); type: in vivo
Protocol: as §1
In the follow-up test, the drug was administered at 2 h of ischemia.
BZP can improve motor dysfunction, reduce the volume of cerebral infarction, and reduce cerebral edema. The optimal treatment time window is within 4 hours after ischemia, especially within 2 hours after ischemia.

experimental thrombosis = assay: Experimental thrombosis in rats; type: in vivo; details: for results of experimental thrombosis: significantly lower than model group (P<0.01)
[5] = tested on: SYN, GAP-43, BDNF, GFAP, NOGO-A in the ischemic penumbra area; assay: Neuroplasticity after focal cerebral ischemia-reperfusion injury; type: in vivo, rats
Source text: 2.4 Effect of BZP on Neuroplasticity after Focal Cerebral Ischemia-Reperfusion Injury in Rats: […]

[6] = Pharmacokinetics after intravenous injection in rats; type: in vivo
[7] = compared with the model group (P<0.05)
[8] = 12 mg/kg of BZP vs 9.6 mg/kg NBP-K and 10.5 mg/kg Br-NBP
[9] = low, middle and high dose, compared with the model group
[10] = BZP 3, 12 and 24 mg/kg, compared with the model group
[11] = 7 consecutive days, 6.0 mg/kg, rats

Structure (SMILES): CCCCC(O)c1ccc(Br)cc1C(=O)[O-].[Na+] (stereo not drawn) [BZP, sodium 5-bromo-2-(α-hydroxypentyl)benzoate]
- clinical signs during and after administration ([1]; 50 mg/kg, some dogs): tremors in the head and limbs, loose stools, vomiting, and salivation
- clinical signs during each administration ([1]; 150 mg/kg intravenous once a day, 13 weeks, dogs): vomited white foam-like substances, salivation, head and whole body tremors, spasms/convulsions
- anemia and liver findings ([1]; 150 mg/kg, dogs): mild anemia and liver damage
- NOAEL at 13 weeks ([1]; dog, in vivo, long-term toxicity test, dogs, read-out: NOAEL dose): 50 mg/kg
- recovery of symptoms ([1]; dogs, after drug withdrawal): all recovered after 28 days of drug withdrawal
- mortality and behavioral score within 24 hours ([2]; 12 mg/kg): reduce the mortality and behavioral score
- mortalities within 24 hours ([2]; 3 and 12 mg/kg): lower than those in the model group and the NBP-K group
- cell survival pathways (PI3K, P-Akt) ([2]; compared with the model group (P<0.01)): significantly increased
- behavioral scores [2, 7]: significantly lower
- expression of inflammatory circuit factors, apoptosis pathway factors, neuron necrosis rate and apoptosis rate in hippocampal CA1 region [2, 7]: significantly decreased
- recovery of toxic reactions in the nervous system and respiratory system (in vivo; dogs): recovered within 15 minutes to 4 hours
- recovery of toxic reactions in the nervous system and respiratory system (in vivo; rats): recovered within 15 minutes to 4 hours
- MTD (in vivo; dog, dogs): 300 mg/kg
- MTD (in vivo; rat, rats): 200 mg/kg
- number of positive cells, comparison with NBP-K and Br-NBP groups [3, 8]: better than 9.6 mg/kg of NBP-K group and 10.5 mg/kg of Br-NBP group
- optical density value, comparison with NBP-K and Br-NBP groups [3, 8]: better than 9.6 mg/kg of NBP-K group and 10.5 mg/kg of Br-NBP group
- expression of TNF-α, IL-6, IL-1β, NF-κB, COX-2, ICAM-1, immunohistochemical staining optical density value [3, 9]: significantly reduced
- expressions of TNF-α, IL-6, IL-1β, NF-κB, COX-2, ICAM-1, number of immunohistochemical positive cells [3, 9]: significantly reduced
- Cmax and AUC0-t, first compared with last administration ([4]; 7 consecutive days, 2.0 mg/kg, dogs): no statistically significant differences
- accumulation in the body ([4]; intravenous, 7 consecutive days, 2.0 mg/kg, dogs): did not accumulate
- difference between male and female dogs ([4]; single intravenous injection): no significant difference
- Cmax and AUC0-t versus dose ([4]; single intravenous injection of BZP 1.0-4.0 mg/kg, dogs): basically conformed to linear kinetics
- time to recovery of neurobehavioral changes after drug withdrawal (neurobehavior; 50 and 100 mg/kg): ≤ 4 h
- dose that caused neurological effects in rats (neurobehavior; single intravenous injection): 50 mg/kg
- body temperature (neurobehavior; single intravenous injection 50 mg/kg and 100 mg/kg): decrease in body temperature
- neurobehavioral signs at high dose (neurobehavior; single intravenous injection 100 mg/kg): decreased activity, erect hair, decreased frequency of defecation and urination and loss of pupillary stimulation reflex
- effect on the respiratory system (respiratory system): no effect
- platelet aggregation inhibition rate, ADP (platelet aggregation; first (low) dose group): 23.89%
- platelet aggregation inhibition rate, arachidonic acid (platelet aggregation; first (low) dose group): 42.08%
- platelet aggregation inhibition rate, thrombin (platelet aggregation; first (low) dose group): 23.87%
- platelet aggregation inhibition rate, ADP (platelet aggregation; second (medium) dose group): 34.42%
- platelet aggregation inhibition rate, arachidonic acid (platelet aggregation; second (medium) dose group): 60.32%
- platelet aggregation inhibition rate, thrombin (platelet aggregation; second (medium) dose group): 37.75%
- platelet aggregation inhibition rate, ADP (platelet aggregation; third (high) dose group): 44.14%
- platelet aggregation inhibition rate, arachidonic acid (platelet aggregation; third (high) dose group): 72.20%
- platelet aggregation inhibition rate, thrombin (platelet aggregation; third (high) dose group): 55.47%
- volume of cortical infarction (MCAO model rats; 0.75 mg/kg (P<0.01)): significantly reduce the volume of cortex
- effect on volume of cerebral infarction compared with Br-NBP group (MCAO model rats; 3 mg/kg of BZP (P<0.01)): better than that of Br-NBP group
- muscle strength and balance beam behavior (MCAO model rats; 12 mg/kg): significantly restore
- proportion of necrotic neurons and apoptosis rate (MCAO model rats; 12 mg/kg): reduce the proportion of necrotic neurons and apoptosis rate
- effect of administration at 0.5 h and 2 h compared with 4 h after ischemia (MCAO model rats; 12 mg/kg (P<0.01)): better than that of 4 h
- volume of cerebral infarction, treatment time window (MCAO model rats; 12 mg/kg at 0.5 h, 2 h or 4 h after ischemia, compared with the model group): significantly reduce
- improved effects compared with NBPK group (MCAO model rats; 12 mg/kg, muscle strength, balance beam, necrotic neurons, apoptosis rate): significantly better than those of NBPK group
- volumes of cerebral infarction (MCAO model rats; 0.75, 3, 12 and 24 mg/kg, compared with the model group (P<0.01)): significantly reduced
- neurobehavioral scores (MCAO model rats; 3, 12 and 24 mg/kg, at 2.5 h and 6 h, compared with the model group (P<0.05, P<0.01)): significantly lower
- volumes of brain edema (MCAO model rats; 3, 12 and 24 mg/kg, compared with the model group (P<0.01)): significantly reduced
- volumes of striatal and cortical infarction (MCAO model rats; 3 and 12 mg/kg (P<0.01)): significantly reduced the volumes of striatal and cortical infarction
- effect on volume of cerebral infarction compared with NBP-K and Br-NBP groups (MCAO model rats; 12 and 24 mg/kg of BZP (P<0.01)): better than those of NBP-K and Br-NBP groups
- effect on brain edema compared with NBP-K group and Br-NBP group (MCAO model rats; 24 and 12 mg/kg of BZP (P<0.01)): better than those of NBP-K group and Br-NBP group
- brain swelling (MCAO model rats; [10]): significantly reduce
- volume of cerebral infarction (MCAO model rats; [10]): significantly reduce
- neurobehavior of MCAO model rats (MCAO model rats; BZP 3, 12 and 24 mg/kg, dose-dependent): improve the neurobehavior
- treatment time window: time of administration after ischemia at which effective (MCAO model rats; especially within 2 hours after ischemia): ≤ 4 h
- effective dose to protect against ischemia-reperfusion injury in rats (MCAO model rats; rat, in vivo): 12 mg/kg
- experimental thrombosis compared with the Br-NBP group (experimental thrombosis; high dose group (P<0.01)): weaker than that in the Br-NBP group
- experimental thrombosis compared with the ASA group with the same molar dose (experimental thrombosis; high dose group (P>0.05)): no statistical difference
- results of experimental thrombosis (experimental thrombosis; high dose group): 0.13±0.03
- results of experimental thrombosis (experimental thrombosis; low dose group): 0.23±0.04
- results of experimental thrombosis (experimental thrombosis; medium dose group): 0.18±0.02
- NOGO-A expression ([5]; ischemic penumbra area): down-regulating
- expression of SYN, GAP-43, BDNF and GFAP ([5]; ischemic penumbra area): increasing
- nerve repair and recovery of motor function after cerebral ischemic injury ([5]; rat, in vivo): promote nerve repair
- AUC0-t after the last administration compared with the first [6, 11]: significantly higher than that of the first time
- Cmax, single dose compared with multiple doses [6, 11]: no difference
- accumulation in the body ([6]; intravenous, 7 consecutive days, 6.0 mg/kg, rats): did not accumulate
- AUC0-t, female compared with male rats ([6]; single intravenous injection): significantly higher than that in male rats
- Cmax and AUC0-t versus dose ([6]; single intravenous injection of BZP 0.75-12.0 mg/kg, rats): basically conformed to linear kinetics
